# According to patent US20110160399A1, “HISTONE MODIFICATION INHIBITOR SPECIFIC TO TARGET GENE” (NIHON UNIVERSITY, priority 2008, published 2011):
# “Also recorded” adds a separate entry of the source.
# Experiments:
# [1] = test system: HeLa (human uterine cervical cancer cell line); assay: Cell proliferation assay (WST-8) on HeLa cells; format: cell-based; conditions: for suppression of HeLa cell proliferation: 72 hours, various concentrations
# Experimental: (§1) Next, the synthesized compounds were verified by WST-8 assay for their ability to suppress cancer cell proliferation.
# Cell lines of HeLa (human uterine cervical cancer cell line), LOVO, RKO and SW480 (each of which was a human large bowel cancer cell line) were each cultured at 37° C. under 5% carbon dioxide conditions using Dulbecco's modified Eagle's medium (DMEM, Nacalai Tesque, Inc., Japan) supplemented with 10% fetal bovine serum (FBS: JRH bioscience, USA), antibiotics (50 U/ml penicillin and 50 μg/ml streptomycin) and 1 mM sodium pyruvate. Single-layered cells grown to 80-90% confluency on 10 cm cell culture dishes were washed with D-PBS(−) (Nacalai Tesque, Inc., Japan) and then released from the dishes by being treated with a phenol red-containing 2.5 g/L-Trypsine/1 mmol/L EDTA solution (Nacalai Tesque, Inc., Japan). The released cells were adjusted and maintained in fresh medium.
# (§2) Each cell line seeded at 3×10^3 cells/well in a MICROTEST tissue culture plate (96 well, FALCON) was cultured at 37° C. under 5% carbon dioxide conditions for 24 hours, and then cultured in the presence of various concentrations of PI polyamide for an additional 72 hours. After completion of the culture, 10 μl of viable cell counting reagent SF (Nacalai Tesque, Inc., Japan) was added to each well and the absorbance at 450 nm was measured by ARVO EX (PerkinElmer). During the period from reagent addition until assay, incubation was continued at 37° C. in the presence of 5% CO2 until the absorbance reached about 1.2 to 2.0 in the control sample where only 50% DMSO was added to the cells.
# [2] = test system: SW480 (human large bowel cancer cell line); assay: Cell proliferation assay (WST-8) on SW480 cells; format: cell-based; conditions: SW480, 72 hours, FIG. 4
# Experimental: as §1
# Cell lines of HeLa (human uterine cervical cancer cell line), LOVO, RKO and SW480 (each of which was a human large bowel cancer cell line) were each cultured at 37° C. under 5% carbon dioxide conditions using Dulbecco's modified Eagle's medium (DMEM, Nacalai Tesque, Inc., Japan) supplemented with 10% fetal bovine serum (FBS: JRH bioscience, USA), antibiotics (50 U/ml penicillin and 50 μg/ml streptomycin) and 1 mM sodium pyruvate. […]
# as §2
# LARP1 gene expression = assay: Expression analysis of LARP1 gene by quantitative PCR in HEK293 cells; format: cell-based, human; conditions: 150 nM, one week, compared to esterified SAHA+p16 PIP or SAHA+non-targeting PIP, FIG. 11
# Experimental: HEK293 cells were used to analyze LARP1 gene expression. HEK293 cells are a cell line established by transformation of human embryonic kidney cells with the adenovirus E1 gene. The LARP1 gene includes, in its gene region, a sequence similar to the sequence of the regulatory region in the p16 gene recognized by SAHA+p16 PIP, as described above. More specifically, the expression analysis was accomplished as follows. HEK293 cells were cultured in DMEM growth medium containing 10% fetal calf serum (FCS). During culture, the medium was replaced every two days by a culture solution containing the synthesized compound (SAHA+p16 PIP, esterified SAHA+p16 PIP or SAHA+non-targeting PIP) at a final concentration of 150 nM, and cell culture was continued for one week in the medium containing the above synthesized compound. After one week, the cells were lysed with 1 ml of TRIzol and then mixed with 200 μl of chloroform, followed by centrifugation at 12000×g at 4° C. for 10 minutes. Then, the supernatant was mixed with an equal volume of isopropanol and centrifuged at 12000×g at 4° C. for 10 minutes. Then, the pellet was washed with a 70% ethanol solution and centrifuged at 5000×g for 5 minutes to remove the supernatant. […] The RNA (1 μg) was used as a template to synthesize cDNA, followed by quantitative PCR. […]
compound,measurement,setting,value
"CN(C)CCCNC(=O)CCNC(=O)c1cc(NC(=O)c2nc(NC(=O)c3nc(NC(=O)CCNC(=O)c4cc(NC(=O)c5nc(NC(=O)CCCNC(=O)c6cc(NC(=O)c7nc(NC(=O)CCNC(=O)c8cc(NC(=O)c9cc(NC(=O)c%10nc(NC(=O)CCNC(=O)CCNC(=O)c%11ccc(NC(=O)CCCCCCC(=O)NO)cc%11)cn%10C)cn9C)cn8C)cn7C)cn6C)cn5C)cn4C)cn3C)cn2C)cn1C [SAHA+p16 PIP, SAHA-ββImPyPyβImPyγImPyβImImPyβDp]",suppression of HeLa cell proliferation,"[1]; WST-8, FIG. 3, FIG. 4",high antitumor effect
same,suppression of HeLa cell proliferation,"[1]; WST-8, FIG. 3, FIG. 4, listed as p16 PIP attached to the SAHA derivative",proliferation inhibition; also recorded: inhibit proliferation
same,"ability to suppress proliferation, compared among the 4 cancer cell lines (HeLa)",[1]; FIG. 4,high
same,inhibition of SW480 cell proliferation,[2],inhibit proliferation
same,expression of the LARP1 gene,LARP1 gene expression,increased expression
